Organism: Rattus norvegicus
Assay: DrugMatrix - Regimen: Daily Repeat
Format: toxicity, organism-based, Sprague-Dawley
Design: regimen Daily Repeat, gender Male, age 6-8 weeks
Settings: in vivo, po, 90 mg/kg, route oral GAVAGE, dose level Low, vehicle 100 % WATER; for ALANINE AMINOTRANSFERASE / ALBUMIN / ALKALINE PHOSPHATASE / ASPARTATE AMINOTRANSFERASE / BLOOD UREA NITROGEN / CARBON DIOXIDE / CHLORIDE / CHOLESTEROL / CREATINE PHOSPHOKINASE / CREATININE / LACTATE DEHYDROGENASE / LIPASE / PHOSPHORUS / POTASSIUM / SODIUM / TOTAL BILIRUBIN / TOTAL PROTEIN / URIC ACID: tissue Plasma
[1] = 120 h, tissue Blood, time 5 day

CC(NC(C)(C)C)C(=O)c1cccc(Cl)c1 (stereo not drawn) [BUPROPION]
ABSOLUTE BASOPHIL (72 h, tissue Blood, time 3 day): 0 CELLS/uL | ABSOLUTE EOSINOPHIL (72 h, tissue Blood, time 3 day): 0 CELLS/uL | ABSOLUTE LYMPHOCYTE (72 h, tissue Blood, time 3 day): 10359.67 CELLS/uL | ABSOLUTE MONOCYTE (72 h, tissue Blood, time 3 day): 103.67 CELLS/uL | ABSOLUTE SEGMENTED NEUTROPHIL (72 h, tissue Blood, time 3 day): 603.33 CELLS/uL | BASOPHIL (72 h, tissue Blood, time 3 day): 0% | EOSINOPHIL (72 h, tissue Blood, time 3 day): 0% | ERYTHROCYTE COUNT (72 h, tissue Blood, time 3 day): 5.5 x10E6/uL | HEMATOCRIT (72 h, tissue Blood, time 3 day): 35.63% | HEMOGLOBIN (72 h, tissue Blood, time 3 day): 13.4 G/DL | LEUKOCYTE COUNT (72 h, tissue Blood, time 3 day): 11.07 x10E3/uL | LYMPHOCYTE (72 h, tissue Blood, time 3 day): 93.67% | MEAN CORPUSCULAR HEMOGLOBIN (72 h, tissue Blood, time 3 day): 24.4 pg | MEAN CORPUSCULAR HEMOGLOBIN CONCENTRATION (72 h, tissue Blood, time 3 day): 37.63 G/DL | MEAN CORPUSCULAR VOLUME (72 h, tissue Blood, time 3 day): 64.83 fL | MONOCYTE (72 h, tissue Blood, time 3 day): 1% | NEUTROPHIL (72 h, tissue Blood, time 3 day): 5.33% | NUCLEATED RED BLOOD CELLS (72 h, tissue Blood, time 3 day): 0 /100WBC | PLATELET COUNT (72 h, tissue Blood, time 3 day): 1176 x10E3/uL | ALANINE AMINOTRANSFERASE (72 h, time 3 day): 40 u/L | ALBUMIN (72 h, time 3 day): 4.5 G/DL | ALKALINE PHOSPHATASE (72 h, time 3 day): 417.67 u/L | ASPARTATE AMINOTRANSFERASE (72 h, time 3 day): 84.67 u/L | BLOOD UREA NITROGEN (72 h, time 3 day): 16.33 mg/dL | CARBON DIOXIDE (72 h, time 3 day): 31 mmol/L | CHLORIDE (72 h, time 3 day): 99.33 MEQ/L | CHOLESTEROL (72 h, time 3 day): 95 mg/dL | CREATINE PHOSPHOKINASE (72 h, time 3 day): 325 u/L | CREATININE (72 h, time 3 day): 0.19 mg/dL | LACTATE DEHYDROGENASE (72 h, time 3 day): 154.67 u/L | LIPASE (72 h, time 3 day): 9 u/L | PHOSPHORUS (72 h, time 3 day): 10.93 mg/dL | POTASSIUM (72 h, time 3 day): 6.49 MEQ/L | SODIUM (72 h, time 3 day): 143.13 MEQ/L | TOTAL BILIRUBIN (72 h, time 3 day): 0.17 mg/dL | TOTAL PROTEIN (72 h, time 3 day): 6.53 G/DL | URIC ACID (72 h, time 3 day): 0.73 mg/dL | ABSOLUTE BASOPHIL [1]: 0 CELLS/uL | ABSOLUTE EOSINOPHIL [1]: 55.33 CELLS/uL | ABSOLUTE LYMPHOCYTE [1]: 14977 CELLS/uL | ABSOLUTE MONOCYTE [1]: 411.67 CELLS/uL | ABSOLUTE SEGMENTED NEUTROPHIL [1]: 2222.67 CELLS/uL | BASOPHIL [1]: 0% | EOSINOPHIL [1]: 0.33% | ERYTHROCYTE COUNT [1]: 5.73 x10E6/uL | HEMATOCRIT [1]: 37.5% | LEUKOCYTE COUNT [1]: 17.67 x10E3/uL | LYMPHOCYTE [1]: 86.67% | MEAN CORPUSCULAR HEMOGLOBIN [1]: 24.83 pg | MEAN CORPUSCULAR HEMOGLOBIN CONCENTRATION [1]: 37.83 G/DL | MEAN CORPUSCULAR VOLUME [1]: 65.57 fL | MONOCYTE [1]: 2% | NEUTROPHIL [1]: 11% | NUCLEATED RED BLOOD CELLS [1]: 0 /100WBC | PLATELET COUNT [1]: 1410.67 x10E3/uL | ALANINE AMINOTRANSFERASE (120 h, time 5 day): 37.67 u/L | ALBUMIN (120 h, time 5 day): 4.67 G/DL | ALKALINE PHOSPHATASE (120 h, time 5 day): 328 u/L | ASPARTATE AMINOTRANSFERASE (120 h, time 5 day): 72 u/L | BLOOD UREA NITROGEN (120 h, time 5 day): 17.33 mg/dL | CARBON DIOXIDE (120 h, time 5 day): 32.33 mmol/L | CHLORIDE (120 h, time 5 day): 100 MEQ/L | CHOLESTEROL (120 h, time 5 day): 93.67 mg/dL | CREATINE PHOSPHOKINASE (120 h, time 5 day): 263 u/L | CREATININE (120 h, time 5 day): 0.21 mg/dL | LACTATE DEHYDROGENASE (120 h, time 5 day): 145 u/L | LIPASE (120 h, time 5 day): 9.33 u/L | PHOSPHORUS (120 h, time 5 day): 12.6 mg/dL | POTASSIUM (120 h, time 5 day): 8.49 MEQ/L | SODIUM (120 h, time 5 day): 144.5 MEQ/L | TOTAL BILIRUBIN (120 h, time 5 day): 0.23 mg/dL | TOTAL PROTEIN (120 h, time 5 day): 6.77 G/DL | URIC ACID (120 h, time 5 day): 1.6 mg/dL

— ChEMBL document CHEMBL3885881, “DrugMatrix”
